# Data from publication PMC8640094, “Diaportones A–C: Three New Metabolites From Endophytic Fungus Diaporthe foeniculina BZM-15” (Frontiers in Chemistry, 2021).
# Key:
# MCF-7 (breast cancer) = test: MTT cytotoxicity assay, MCF-7 cells; assay type: cell-based, human; conditions: Homo sapiens; for inhibition at 1 µM / inhibition at 2 µM / inhibition at 4 µM / inhibition at 16 µM / inhibition at 32 µM / inhibition at 64 µM / inhibition at 128 µM / inhibition at 8 µM: MCF7, 72 h, three replicates, read-out: cell inhibition; for inhibition at 1 µM: MCF-7, c 1.00 μM; for inhibition at 2 µM: MCF-7, c 2.00 μM; for inhibition at 4 µM: MCF-7, c 4.00 μM; for inhibition at 16 µM: MCF-7, c 16.00 μM; for inhibition at 32 µM: MCF-7, c 32.00 μM; for inhibition at 64 µM: MCF-7, c 64.00 μM; for inhibition at 128 µM: MCF-7, c 128.00 μM; for IC50: MCF7, MTT, 72 h, mean ± SD (n = 3); for inhibition at 8 µM: MCF-7, c 8.00 μM
# Method: (§1) The cytotoxicity of all compounds against three human tumor cell lines, SF-268 (CNS cancer), MCF-7 (breast cancer), and HepG2 (hepatoma cancer), and normal cell line LX-2 was tested using the MTT assay. […] All cells were seeded into 96-well plates at 5 × 10^4 cells/ml and incubated at 37°C under a 5% CO2 atmosphere for 24 h. Then, the tested compounds were added. After 72 h, MTT solution was added into each well, which was further incubated. The cell-free supernatant was removed and formazan crystals were subsequently dissolved in DMSO. Optical density (OD) was recorded at 490 nm on a microplate reader to calculate the IC50 values.
# HepG2 (hepatoma cancer) = test: MTT cytotoxicity assay, HepG2 cells; assay type: cell-based, human; conditions: Homo sapiens; for inhibition at 1 µM / inhibition at 2 µM / inhibition at 4 µM / inhibition at 8 µM / inhibition at 16 µM / inhibition at 32 µM / inhibition at 64 µM / inhibition at 128 µM: HepG2, 72 h, three replicates, read-out: cell inhibition; for inhibition at 1 µM: HepG2, c 1.00 μM; for inhibition at 2 µM: HepG2, c 2.00 μM; for inhibition at 4 µM: HepG2, c 4.00 μM; for inhibition at 8 µM: HepG2, c 8.00 μM; for inhibition at 16 µM: HepG2, c 16.00 μM; for inhibition at 32 µM: HepG2, c 32.00 μM; for inhibition at 64 µM: HepG2, c 64.00 μM; for inhibition at 128 µM: HepG2, c 128.00 μM; for IC50: HepG2, MTT, 72 h, mean ± SD (n = 3)
# Method: (§2) The cytotoxicity of all compounds against three human tumor cell lines, SF-268 (CNS cancer), MCF-7 (breast cancer), and HepG2 (hepatoma cancer), and normal cell line LX-2 was tested using the MTT assay. Adriamycin was used as a positive control. All cells were seeded into 96-well plates at 5 × 10^4 cells/ml and incubated at 37°C under a 5% CO2 atmosphere for 24 h. Then, the tested compounds were added. After 72 h, MTT solution was added into each well, which was further incubated. The cell-free supernatant was removed and formazan crystals were subsequently dissolved in DMSO. Optical density (OD) was recorded at 490 nm on a microplate reader to calculate the IC50 values.
# SF-268 (CNS cancer) = test: MTT cytotoxicity assay, SF-268 cells; assay type: cell-based, human; conditions: Homo sapiens; for inhibition at 1 µM / inhibition at 2 µM / inhibition at 4 µM / inhibition at 8 µM / inhibition at 16 µM / inhibition at 32 µM / inhibition at 64 µM / inhibition at 128 µM: SF-268, 72 h, SF268 cells, triplicate values, read-out: cell inhibition; for inhibition at 1 µM: c 1.00 μM; for inhibition at 2 µM: c 2.00 μM; for inhibition at 4 µM: c 4.00 μM; for inhibition at 8 µM: c 8.00 μM; for inhibition at 16 µM: c 16.00 μM; for inhibition at 32 µM: c 32.00 μM; for inhibition at 64 µM: c 64.00 μM; for inhibition at 128 µM: c 128.00 μM; for IC50: SF-268, MTT, 72 h, mean ± SD (n = 3), read-out: IC50 SF268
# Method: as §2
# normal cell line LX-2 = test: MTT cytotoxicity assay, normal cell line LX-2; assay type: cell-based; conditions: 72 h; for inhibition at 1 µM: LX-2, c 1.00 μM; for inhibition at 1 µM / inhibition at 2 µM / inhibition at 4 µM / inhibition at 8 µM / inhibition at 16 µM / inhibition at 32 µM / inhibition at 64 µM / inhibition at 128 µM: three replicates; for inhibition at 2 µM: LX-2, c 2.00 μM; for inhibition at 4 µM: LX-2, c 4.00 μM; for inhibition at 8 µM: LX-2, c 8.00 μM; for inhibition at 16 µM: LX-2, c 16.00 μM; for inhibition at 32 µM: LX-2, c 32.00 μM; for inhibition at 64 µM: LX-2, c 64.00 μM; for inhibition at 128 µM: LX-2, c 128.00 μM; for IC50: MTT, mean ± SD (n = 3)
# Method: as §1
Structure (SMILES),inhibition at 1 µM (MCF-7 (breast cancer)),inhibition at 2 µM (MCF-7 (breast cancer)),inhibition at 4 µM (MCF-7 (breast cancer)),inhibition at 16 µM (MCF-7 (breast cancer)),inhibition at 32 µM (MCF-7 (breast cancer)),inhibition at 64 µM (MCF-7 (breast cancer)),inhibition at 128 µM (MCF-7 (breast cancer)),IC50 (MCF-7 (breast cancer)),inhibition at 1 µM (HepG2 (hepatoma cancer)),inhibition at 2 µM (HepG2 (hepatoma cancer)),inhibition at 4 µM (HepG2 (hepatoma cancer)),inhibition at 8 µM (HepG2 (hepatoma cancer)),inhibition at 16 µM (HepG2 (hepatoma cancer)),inhibition at 32 µM (HepG2 (hepatoma cancer)),inhibition at 64 µM (HepG2 (hepatoma cancer)),inhibition at 128 µM (HepG2 (hepatoma cancer)),IC50 (HepG2 (hepatoma cancer)),inhibition at 1 µM (SF-268 (CNS cancer)),inhibition at 2 µM (SF-268 (CNS cancer)),inhibition at 4 µM (SF-268 (CNS cancer)),further results
"COc1cccc2c1C(=O)c1c(O)c3c(c(O)c1C2=O)C[C@@](O)(C(=O)CO)C[C@@H]3O[C@H]1C[C@H](N)[C@H](O)[C@H](C)O1 [Adriamycin, reference compound]",27.9%,51.4%,66.5%,97%,97.4%,97.1%,97.4%,1.5 ± 0.01 µM,33.1%,48.5%,66.2%,74.1%,89.4%,86.2%,96.3%,95.3%,2.2 ± 0.03 µM,35.4%,51.1%,69.9%,inhibition at 8 µM (SF-268 (CNS cancer)): 76%; inhibition at 16 µM (SF-268 (CNS cancer)): 90.9%; inhibition at 32 µM (SF-268 (CNS cancer)): 96.4%; inhibition at 64 µM (SF-268 (CNS cancer)): 96.5%; inhibition at 128 µM (SF-268 (CNS cancer)): 95.1%; IC50 (SF-268 (CNS cancer)): 1.9 ± 0.03 µM; inhibition at 1 µM (normal cell line LX-2): 8.56%; inhibition at 2 µM (normal cell line LX-2): 9.36%; inhibition at 4 µM (normal cell line LX-2): 14.5%; inhibition at 8 µM (normal cell line LX-2): 26.4%; inhibition at 16 µM (normal cell line LX-2): 43.4%; inhibition at 32 µM (normal cell line LX-2): 56.2%; inhibition at 64 µM (normal cell line LX-2): 77.2%; inhibition at 128 µM (normal cell line LX-2): 98.1%; IC50 (normal cell line LX-2): > 40 µM
"CC(=O)OC(C)C(C)=CC=CC1(C)OC(=O)C(C)C1O (centres unmarked) [compound 1, diaportone A]",7.76%,12.6%,17.8%,29.1%,32.5%,78.1%,83.4%,> 40 µM,8.32%,14.4%,21.3%,23.1%,30.1%,46.5%,71.3%,80.3%,> 40 µM,2.75%,3.91%,3.45%,inhibition at 8 µM (MCF-7 (breast cancer)): 23.1%; inhibition at 8 µM (SF-268 (CNS cancer)): 6.33%; inhibition at 16 µM (SF-268 (CNS cancer)): 15.7%; inhibition at 32 µM (SF-268 (CNS cancer)): 22.2%; inhibition at 64 µM (SF-268 (CNS cancer)): 37.9%; inhibition at 128 µM (SF-268 (CNS cancer)): 69.3%; IC50 (SF-268 (CNS cancer)): > 40 µM; inhibition at 1 µM (normal cell line LX-2): 3.47%; inhibition at 2 µM (normal cell line LX-2): 5.08%; inhibition at 4 µM (normal cell line LX-2): 9.11%; inhibition at 8 µM (normal cell line LX-2): 8.98%; inhibition at 16 µM (normal cell line LX-2): 15.6%; inhibition at 32 µM (normal cell line LX-2): 31.7%; inhibition at 64 µM (normal cell line LX-2): 45.1%; inhibition at 128 µM (normal cell line LX-2): 70.3%; IC50 (normal cell line LX-2): > 40 µM
"C/C(=C\C=C\[C@]1(C)OC(=O)[C@@H](C)[C@@H]1O)[C@H](C)O [compound 2, colletolides A]",1.03%,2.87%,2.35%,17.4%,22.6%,53.1%,70.1%,> 40 µM,2.57%,3.48%,7.34%,14.6%,19.4%,27.5%,60.5%,75%,> 40 µM,3.14%,4.41%,8.45%,inhibition at 8 µM (MCF-7 (breast cancer)): 12.7%; inhibition at 8 µM (SF-268 (CNS cancer)): 9.12%; inhibition at 16 µM (SF-268 (CNS cancer)): 19.4%; inhibition at 32 µM (SF-268 (CNS cancer)): 27.1%; inhibition at 64 µM (SF-268 (CNS cancer)): 51.5%; inhibition at 128 µM (SF-268 (CNS cancer)): 70.1%; IC50 (SF-268 (CNS cancer)): > 40 µM; inhibition at 1 µM (normal cell line LX-2): 4.42%; inhibition at 2 µM (normal cell line LX-2): 5.31%; inhibition at 4 µM (normal cell line LX-2): 11.3%; inhibition at 8 µM (normal cell line LX-2): 19.3%; inhibition at 16 µM (normal cell line LX-2): 24.4%; inhibition at 32 µM (normal cell line LX-2): 40.4%; inhibition at 64 µM (normal cell line LX-2): 79.4%; inhibition at 128 µM (normal cell line LX-2): 80.5%; IC50 (normal cell line LX-2): > 40 µM
"CCCC(O)C1=C(C)C(=O)C(C)C1 (centres unmarked) [compound 3, diaportone B]",8.01%,13.3%,14.8%,30.5%,41.4%,62.7%,76.1%,> 40 µM,8.12%,14.3%,19.2%,25.3%,30.6%,42.1%,54.8%,75.3%,> 40 µM,6.32%,12%,19.4%,inhibition at 8 µM (MCF-7 (breast cancer)): 21.4%; inhibition at 8 µM (SF-268 (CNS cancer)): 21.4%; inhibition at 16 µM (SF-268 (CNS cancer)): 27.3%; inhibition at 32 µM (SF-268 (CNS cancer)): 28.5%; inhibition at 64 µM (SF-268 (CNS cancer)): 34.1%; inhibition at 128 µM (SF-268 (CNS cancer)): 59.4%; IC50 (SF-268 (CNS cancer)): > 40 µM; inhibition at 1 µM (normal cell line LX-2): 6.32%; inhibition at 2 µM (normal cell line LX-2): 5.31%; inhibition at 4 µM (normal cell line LX-2): 11.4%; inhibition at 8 µM (normal cell line LX-2): 20.6%; inhibition at 16 µM (normal cell line LX-2): 28.3%; inhibition at 32 µM (normal cell line LX-2): 34.8%; inhibition at 64 µM (normal cell line LX-2): 50.5%; inhibition at 128 µM (normal cell line LX-2): 70.2%; IC50 (normal cell line LX-2): > 40 µM
"CCCC(O)C1=C(C)C(=O)CC1C (centres unmarked) [compound 4, phomotenone]",3.45%,7.63%,13.1%,27.3%,36.1%,50.6%,72.2%,> 40 µM,6.5%,7.63%,14.3%,20.2%,31.4%,37.3%,54.7%,73%,> 40 µM,5.57%,8.31%,7.46%,inhibition at 8 µM (MCF-7 (breast cancer)): 20.4%; inhibition at 8 µM (SF-268 (CNS cancer)): 13.1%; inhibition at 16 µM (SF-268 (CNS cancer)): 23.8%; inhibition at 32 µM (SF-268 (CNS cancer)): 46.7%; inhibition at 64 µM (SF-268 (CNS cancer)): 74.3%; inhibition at 128 µM (SF-268 (CNS cancer)): 82.1%; IC50 (SF-268 (CNS cancer)): > 40 µM; inhibition at 1 µM (normal cell line LX-2): 7.34%; inhibition at 2 µM (normal cell line LX-2): 9.3%; inhibition at 4 µM (normal cell line LX-2): 12%; inhibition at 8 µM (normal cell line LX-2): 18.1%; inhibition at 16 µM (normal cell line LX-2): 24.6%; inhibition at 32 µM (normal cell line LX-2): 41.1%; inhibition at 64 µM (normal cell line LX-2): 70%; inhibition at 128 µM (normal cell line LX-2): 87.1%; IC50 (normal cell line LX-2): > 40 µM
